Data taken from US20230055237A1, “COMPOUNDS AND METHODS FOR THE TREATMENT OF CYSTIC FIBROSIS” (Flatley Discovery Lab, LLC, priority 2019, published 2023).

Biological target: T1, CFTR (Homo sapiens, UniProt P13569, DEL508-508)
T1 construct: Primary CF airway epithelial cells were obtained from the UNC Cystic Fibrosis Tissue Procurement and Cell Culture Core; host or cells: primary CF airway epithelial cells, differentiated at the air-liquid interface
Experiment: Equivalent current assay in primary CF airway epithelial cells (NAUC, combination with 1st site corrector FDL169 or VX-809)
Type: cell-based
Conditions: 37° C., 24 h
Experimental: Primary CF airway epithelial cells were obtained from the UNC Cystic Fibrosis Tissue Procurement and Cell Culture Core. The cells are grown at 37° C. in a Heracell 150i incubator using growth media (BEGM, Fischer). […] Two days before the Ussing assay the mucus on the apical surface of the cells was aspirated after incubating with 200 μL of differentiation media for at least thirty (30) minutes. One day before the Ussing assay test compounds were added to the basolateral surface of the cells at various test concentrations dissolved in DMSO. Duplicate wells were prepared giving a n=3 or n=4 protocol.
Cells were treated for 24 hours with various combinations and concentrations of the test articles, reference standard (3 μM VX809 or 3 μM FDL169, positive control). Compounds stock solutions were prepared in DMSO and diluted 1/1000 into ALI media to their final assay concentration. Cells were treated with combination solutions (2 mL of each dilution) and incubated at 37° C. for 24 h.
For the equivalent current assay, cells on four Transwell (24-well) plates were treated. Each Transwell plate was filled with 200 μl of HBS on the apical surface and 2 ml on the basolateral surface. Plates were placed horizontally in a heated mount at 37° C., and equilibrated for several minutes. Resting current was measured for 15 min and then blocked by the apical addition of 5 μM benzamil. After 20 min, 10 μM forskolin and 1 μM VX770 were added to both the apical and basolateral side to stimulate CFTR. An increase in chloride current is seen as an upward deflection of the trace.
The raw data, current vs. time for the Ussing chamber (sampling interval: 10 s) and voltage vs. time and resistance vs. time for the equivalent current assay (sampling interval: 5 minutes) were transferred to Excel (Microsoft Office Professional, version 14.0.7106.5003) for analysis. […] This average is equivalent to the sum of the average forskolin activated and the average VX770-potentiated currents. The average current measured in vehicle (0.1% DMSO) treated cells, Iv, was subtracted from the current for the test article, ITA, or from the corrector reference standard VX809 (3 uM ISTD). For replicate measurements, the average vehicle subtracted response for the test article, was normalized to the average vehicle subtracted inhibitor response of the reference corrector VX809 (3 μM).
A second endpoint, for the equivalent current assay, evaluated was NAUC, the normalized area under the curve (AUC) measuring the response after addition of forskolin and VX770 to the time point right before the addition of the CFTR inhibitor. The AUC is effectively the average response multiplied by the duration of the response.
NAUCTA=[AUCTA−AUCV,ave]/[AUCVx809r,ave−AUCV,ave] (Equation 2).
Experiments were run with a minimum of n=4 replicates per concentration. Since the distribution for the ratio of two normal distributions is a Cauchy distribution, the median value must be used for the average and the average deviation must be used for the error of all normalized data.
E=Emin+(Emax−Emin)/(1+10^((LogEC5OS)*nH)) (Equation 3)

[1] = test compound 10 μM in combination with 1st site corrector VX-809 (3 μM)
[2] = test compound 1 μM in combination with 1st site corrector FDL169 (3 μM)
[3] = test compound 3 μM in combination with 1st site corrector FDL169 (3 μM)
[4] = test compound 10 μM in combination with 1st site corrector FDL169 (3 μM)
[5] = test compound 1 μM in combination with 1st site corrector VX-809 (3 μM)
[6] = test compound 3 μM in combination with 1st site corrector VX-809 (3 μM)

T1 sequence (P13569 with tags, fused parts or gaps DEL508-508): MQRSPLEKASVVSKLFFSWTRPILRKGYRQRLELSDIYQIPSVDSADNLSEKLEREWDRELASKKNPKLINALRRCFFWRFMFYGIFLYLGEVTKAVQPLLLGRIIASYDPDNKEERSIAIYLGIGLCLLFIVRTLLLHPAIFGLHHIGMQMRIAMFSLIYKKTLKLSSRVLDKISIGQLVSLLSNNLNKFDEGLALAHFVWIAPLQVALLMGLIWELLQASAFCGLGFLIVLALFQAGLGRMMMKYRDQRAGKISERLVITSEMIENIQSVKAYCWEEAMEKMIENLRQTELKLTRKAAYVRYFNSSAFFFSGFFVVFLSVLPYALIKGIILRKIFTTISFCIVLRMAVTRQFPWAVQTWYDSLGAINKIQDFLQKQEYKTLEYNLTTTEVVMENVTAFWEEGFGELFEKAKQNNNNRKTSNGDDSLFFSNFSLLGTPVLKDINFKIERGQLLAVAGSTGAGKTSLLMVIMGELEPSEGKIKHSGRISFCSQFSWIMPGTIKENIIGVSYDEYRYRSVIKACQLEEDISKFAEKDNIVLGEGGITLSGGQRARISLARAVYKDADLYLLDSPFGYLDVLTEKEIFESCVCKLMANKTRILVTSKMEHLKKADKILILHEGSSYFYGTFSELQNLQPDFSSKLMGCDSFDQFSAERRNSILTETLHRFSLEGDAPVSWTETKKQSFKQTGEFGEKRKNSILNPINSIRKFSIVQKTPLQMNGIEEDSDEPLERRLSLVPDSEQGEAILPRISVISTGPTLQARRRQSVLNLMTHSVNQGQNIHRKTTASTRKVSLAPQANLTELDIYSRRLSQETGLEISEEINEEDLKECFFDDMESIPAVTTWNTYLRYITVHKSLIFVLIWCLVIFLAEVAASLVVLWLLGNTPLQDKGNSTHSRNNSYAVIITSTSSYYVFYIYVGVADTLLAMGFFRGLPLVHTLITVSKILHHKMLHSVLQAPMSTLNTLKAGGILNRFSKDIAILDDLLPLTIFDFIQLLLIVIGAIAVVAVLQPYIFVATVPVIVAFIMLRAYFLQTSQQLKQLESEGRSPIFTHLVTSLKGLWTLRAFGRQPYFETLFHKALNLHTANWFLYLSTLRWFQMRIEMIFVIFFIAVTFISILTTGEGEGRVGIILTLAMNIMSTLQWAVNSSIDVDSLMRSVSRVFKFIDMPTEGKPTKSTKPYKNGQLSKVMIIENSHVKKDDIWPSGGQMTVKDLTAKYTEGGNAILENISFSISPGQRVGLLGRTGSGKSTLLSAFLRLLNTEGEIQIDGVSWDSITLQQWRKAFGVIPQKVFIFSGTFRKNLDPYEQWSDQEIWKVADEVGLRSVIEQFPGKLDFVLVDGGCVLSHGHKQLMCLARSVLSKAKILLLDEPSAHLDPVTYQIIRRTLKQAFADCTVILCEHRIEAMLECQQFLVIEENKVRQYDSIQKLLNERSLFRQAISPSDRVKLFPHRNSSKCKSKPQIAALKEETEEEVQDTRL

| SMILES | Nauc @ 10 μM [1] | Nauc @ 1 μM [2] | Nauc @ 3 μM [3] | Nauc @ 10 μM [4] | Nauc @ 1 μM [5] | Nauc @ 3 μM [6] |
| --- | --- | --- | --- | --- | --- | --- |
| CC(=O)OCOC(=O)[C@H]1[C@@H](C(=O)N(C)c2cc(Cl)cc(Cl)c2)[C@H]2CC(F)(F)CN2[C@]12C(=O)Nc1c(Cl)cc(Cl)cc12 (single isomer, unassigned) [Example 256b] | + (NAUC “+” refers to an observed NAUC <140% of positive control) | – | – | – | – | – |
| O=C(O)[C@H]1[C@@H](C(=O)N(CC2CC2)c2cccc(C(F)(F)F)c2)[C@H]2CC(F)(F)CN2[C@]12C(=O)Nc1c(Cl)cc(Cl)cc12 [Example 163] | – | +++ (NAUC “+++” refers to an observed NAUC>170% of positive control) | +++ (NAUC “+++” refers to an observed NAUC>170% of positive control) | ++ (NAUC “++” refers to an observed NAUC 170-140% of positive control) | – | – |
| O=C(Nc1cc2ccccc2cn1)[C@H]1[C@H]2CC(F)(F)CN2[C@]2(C(=O)Nc3c(Cl)cc(Cl)cc32)[C@H]1C(=O)O [Example 119] | + (NAUC “+” refers to an observed NAUC <140% of positive control) | – | – | – | + (NAUC “+” refers to an observed NAUC <140% of positive control) | + (NAUC “+” refers to an observed NAUC <140% of positive control) |
| O=C(Nc1ncnc2ccccc12)[C@H]1[C@H]2CC(F)(F)CN2[C@]2(C(=O)Nc3c(Cl)cc(Cl)cc32)[C@H]1C(=O)O [Example 144] | – | + (NAUC “+” refers to an observed NAUC <140% of positive control) | + (NAUC “+” refers to an observed NAUC <140% of positive control) | – | – | – |
| O=C(Nc1cnc(-c2ccccc2)cn1)[C@H]1[C@H]2CC(F)(F)CN2[C@]2(C(=O)Nc3c(Cl)cc(Cl)cc32)[C@H]1C(=O)O [Example 134] | – | – | – | – | + (NAUC “+” refers to an observed NAUC <140% of positive control) | + (NAUC “+” refers to an observed NAUC <140% of positive control) |
| CN(O)C(=O)C1C(C(=O)Nc2cc(Cl)cc(Cl)c2)C2CCCN2C12C(=O)Nc1c(Cl)cc(Cl)cc12 (single isomer, unassigned) [Example 235b, 5,7-dichloro-N1′-(3,5-dichlorophenyl)-N2′-hydroxy-N2′-methyl-2-oxo-1′,2′,5′,6′,7′,7a′-hexahydrospiro[indoline-3,3′-pyrrolizine]-1′,2′-dicarboxamide] | +++ (NAUC “+++” refers to an observed NAUC>170% of positive control) | – | – | – | +++ (NAUC “+++” refers to an observed NAUC>170% of positive control) | +++ (NAUC “+++” refers to an observed NAUC>170% of positive control) |
| O=C(O)[C@H]1[C@@H](C(=O)N(c2cc(Cl)cc(Cl)c2)C2CCC2)[C@H]2CC(F)(F)CN2[C@]12C(=O)Nc1c(Cl)cc(Cl)cc12 [Example 152] | – | +++ (NAUC “+++” refers to an observed NAUC>170% of positive control) | +++ (NAUC “+++” refers to an observed NAUC>170% of positive control) | ++ (NAUC “++” refers to an observed NAUC 170-140% of positive control) | – | – |
| O=C(Nc1cc(Cl)c(OC(F)F)c(Cl)c1)C1C2CC3(CC3)CN2C2(C(=O)Nc3c(Cl)cc(Cl)cc32)C1C(=O)O (centres unmarked) [Example 12] | +++ (NAUC “+++” refers to an observed NAUC>170% of positive control) | – | – | – | – | +++ (NAUC “+++” refers to an observed NAUC>170% of positive control) |
| CN(C(=O)[C@H]1[C@H]2CC(F)(F)CN2[C@]2(C(=O)N(C)c3c(Cl)cc(Cl)cc32)[C@H]1C(=O)O)c1cc(Cl)cc(Cl)c1 [Example 200, (1′R,2′S,3R,7a′R)-5,7-dichloro-1-((3,5-dichlorophenyl)(methyl)carbamoyl)-6′,6′-difluoro-1-methyl-2-oxo-1′,2′,5′,6′,7′,7a′-hexahydrospiro[indoline-3,3′-pyrrolizine]-2′-carboxylic acid] | +++ (NAUC “+++” refers to an observed NAUC>170% of positive control) | ++ (NAUC “++” refers to an observed NAUC 170-140% of positive control) | ++ (NAUC “++” refers to an observed NAUC 170-140% of positive control) | ++ (NAUC “++” refers to an observed NAUC 170-140% of positive control) | +++ (NAUC “+++” refers to an observed NAUC>170% of positive control) | +++ (NAUC “+++” refers to an observed NAUC>170% of positive control) |
| COC(=O)[C@@]1(C)[C@@H](C(=O)N(C)c2cc(Cl)cc(Cl)c2)[C@H]2CC(F)(F)CN2C12C(=O)Nc1c(Cl)cc(Cl)cc12 (some centres unmarked) [Example 282] | – | + (NAUC “+” refers to an observed NAUC <140% of positive control) | + (NAUC “+” refers to an observed NAUC <140% of positive control) | – | – | – |
| O=C(Nc1ccc2scnc2c1)[C@H]1[C@H]2CC(F)(F)CN2[C@]2(C(=O)Nc3c(Cl)cc(Cl)cc32)[C@H]1C(=O)O [Example 128] | – | – | – | – | + (NAUC “+” refers to an observed NAUC <140% of positive control) | + (NAUC “+” refers to an observed NAUC <140% of positive control) |
| CC(C)(C)CN(C(=O)[C@H]1[C@@H](C(=O)O)C2(C(=O)Nc3c(Cl)cc(Cl)cc32)N2CCC[C@@H]12)c1cc(Cl)cc(Cl)c1 (single isomer, unassigned) [Example 82.6a, (1′R,2′S,7a′R)-5,7-dichloro-1-((3,5-dichlorophenyl)(neopentyl)carbamoyl)-2-oxo-1′,2′,5′,6′,7′,7a′-hexahydrospiro[indoline-3,3′-pyrrolizine]-2′-carboxylic acid] | – | +++ (NAUC “+++” refers to an observed NAUC>170% of positive control) | ++ (NAUC “++” refers to an observed NAUC 170-140% of positive control) | – | – | – |
| O=C(Nc1cccc(-c2ccccc2)c1)[C@H]1[C@H]2CC(F)(F)CN2[C@]2(C(=O)Nc3c(Cl)cc(Cl)cc32)[C@H]1C(=O)O [Example 124] | – | – | – | – | +++ (NAUC “+++” refers to an observed NAUC>170% of positive control) | +++ (NAUC “+++” refers to an observed NAUC>170% of positive control) |
| Cn1nccc1NC(=O)[C@H]1[C@@H](C(=O)Nc2cc(Cl)cc(Cl)c2)[C@H]2CCCN2[C@]12C(=O)Nc1c(Cl)cc(Cl)cc12 (single isomer, unassigned) [Example 239, (1′R,2′ S,7a′R)-5,7-dichloro-N1′-(3,5-dichlorophenyl)-N2′-(1-methyl-1H-pyrazol-5-yl)-2-oxo-1′,2′,5′,6′,7′,7a′-hexahydrospiro[indoline-3,3′-pyrrolizine]-1′,2′-dicarboxamide] | + (NAUC “+” refers to an observed NAUC <140% of positive control) | – | – | – | + (NAUC “+” refers to an observed NAUC <140% of positive control) | + (NAUC “+” refers to an observed NAUC <140% of positive control) |
| Cc1cccc(CCNC(=O)C2C3CC(F)(F)CN3C3(C(=O)Nc4c(Cl)cc(Cl)cc43)C2C(=O)O)c1 (centres unmarked) [Example 48] | +++ (NAUC “+++” refers to an observed NAUC>170% of positive control) | – | – | – | – | ++ (NAUC “++” refers to an observed NAUC 170-140% of positive control) |
